Measured values reported in patent US20250333394A1, “Tiparp Inhibitor Compounds” (AbbVie Inc., priority 2024, published 2025).

Assays:
NCI-H1373 cells = experiment: NCI-H1373 CellTiter-Glo cell assay for TIPARP inhibition; type: cell-based, human; conditions: Homo sapiens, NCI-H1373, 144 h; 6 days, 100 nM 10-Cl-BBQ in medium; read-out: NCI-H1373 CTG EC50
Outline: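 NCI-H1373 cells (1000/well) grown in RPMI 1640 with 10% FBS and 100 nM 10-Cl-BBQ, exposed to compounds from 30 μM to 0.5 nM final in 3-fold steps for 6 days at 37° C. Cell number read on day 7 by CellTiter-Glo luminescence.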

TIPARP GST-(TEV) = TIPARP GST-(TEV) (Homo sapiens (Human), UniProt Q7Z3E1); experiment: TR-FRET binding assay, TIPARP
Outline: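 N-terminal GST-TEV-tagged human TIPARP with protein/probe mix in 50 mM Tris-HCl pH 8.0, 5 mM MgCl2, 5 µM ZnCl2, 1 mM DTT, 0.15% BSA, 0.01% Triton X-100, plus 1 nM Tb-anti-GST antibody. Compounds at 30 µM to 0.5 nM final, 3-fold steps. TR-FRET ratio read after 2 h at ambient temperature.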

PARP1 GST = PARP1 GST (Homo sapiens (Human), UniProt P09874); experiment: TR-FRET binding assay, PARP1; conditions: Probe 2, 2 hours incubation
Outline: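 Serially diluted compounds, final 30 μM down to 0.5 nM, incubated 2 h at ambient temperature with GST-tagged protein/probe mix plus 1 nM Tb-anti-GST antibody. Buffer: 50 mM Tris-HCl pH 8.0, 5 mM MgCl2, 5 μM ZnCl2, 1 mM DTT, 0.15% BSA, 0.01% Triton X-100. Binding read as TR-FRET ratio.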

NCI-H1373 tumors = experiment: NCI-H1373 xenograft tumor model efficacy; type: in vivo, mouse; conditions: PO BID for 14 days, SCID-beige mice
Method: The human xenograft line NCI-H1373 was obtained from ATCC (American Type Culture Collection, Manassas, Virginia, USA). A suspension of 5×10^6 cells in culture medium mixed with Matrigel® (Corning Life Sciences, Lowell, MA, USA; 1:1, volume:volume) was injected subcutaneously in the right hind flank of female SCID-beige mice to generate tumor formation. Treatment started when the size of the flank tumors was approximately 120 mm^3. The TIPARP inhibition activity of Example 1 was evaluated by dosing five separate treatment groups with vehicle and four different doses of Example 1, administered twice a day (BID) for 14 days. Each administration consisted of a 0.2 mL PO dose in a vehicle formulation (10% ethanol, 30% PEG300, and 60% PHOSAL® 50).

Chain of TIPARP GST-(TEV) (Q7Z3E1 441-657): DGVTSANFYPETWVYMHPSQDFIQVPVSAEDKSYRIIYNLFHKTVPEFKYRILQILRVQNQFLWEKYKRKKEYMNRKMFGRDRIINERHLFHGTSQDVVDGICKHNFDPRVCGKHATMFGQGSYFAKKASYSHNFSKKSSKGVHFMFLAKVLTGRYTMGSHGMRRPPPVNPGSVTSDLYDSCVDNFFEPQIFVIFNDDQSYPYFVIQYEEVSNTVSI
Chain of PARP1 GST (P09874 whole entry): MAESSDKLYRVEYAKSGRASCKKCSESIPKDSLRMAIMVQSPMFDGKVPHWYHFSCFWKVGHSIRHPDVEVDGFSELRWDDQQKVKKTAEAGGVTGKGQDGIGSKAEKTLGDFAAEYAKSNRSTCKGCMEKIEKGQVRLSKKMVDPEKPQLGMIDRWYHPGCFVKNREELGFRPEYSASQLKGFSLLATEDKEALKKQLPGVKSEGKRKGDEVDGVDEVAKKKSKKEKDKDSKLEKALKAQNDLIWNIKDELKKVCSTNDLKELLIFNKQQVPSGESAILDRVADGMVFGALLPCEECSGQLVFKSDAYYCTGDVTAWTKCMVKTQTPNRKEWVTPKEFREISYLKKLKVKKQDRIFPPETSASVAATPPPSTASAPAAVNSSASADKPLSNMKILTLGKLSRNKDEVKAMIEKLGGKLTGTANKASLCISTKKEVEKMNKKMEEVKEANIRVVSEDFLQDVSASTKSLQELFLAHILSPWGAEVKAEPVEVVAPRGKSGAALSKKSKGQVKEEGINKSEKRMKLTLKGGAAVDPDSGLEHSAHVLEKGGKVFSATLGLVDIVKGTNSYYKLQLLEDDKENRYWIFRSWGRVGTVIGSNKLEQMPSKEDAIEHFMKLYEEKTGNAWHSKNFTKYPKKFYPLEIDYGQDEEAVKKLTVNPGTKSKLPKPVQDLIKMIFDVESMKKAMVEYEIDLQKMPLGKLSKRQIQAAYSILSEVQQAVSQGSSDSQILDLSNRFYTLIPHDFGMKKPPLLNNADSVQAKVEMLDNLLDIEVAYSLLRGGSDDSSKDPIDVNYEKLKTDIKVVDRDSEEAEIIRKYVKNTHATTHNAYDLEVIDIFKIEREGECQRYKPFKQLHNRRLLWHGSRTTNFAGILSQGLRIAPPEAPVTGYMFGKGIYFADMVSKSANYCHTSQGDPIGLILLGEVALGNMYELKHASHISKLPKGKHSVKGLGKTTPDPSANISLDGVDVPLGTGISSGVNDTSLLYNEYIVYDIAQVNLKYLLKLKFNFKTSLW

C[C@@H]1CN(c2ncc(C(F)(F)F)cn2)CCN1C(=O)[C@H]1C[C@@H](c2c[nH]c(=O)c(C(F)(F)F)c2)C1 [Example 1, 5-[(1S,3s)-3-{(2R)-2-methyl-4-[5-(trifluoromethyl)pyrimidin-2-yl]piperazine-1-carbonyl}cyclobutyl]-3-(trifluoromethyl)pyridin-2(1H)-one]
EC50 (NCI-H1373 cells): 17.2 nM
IC50 (TIPARP GST-(TEV); TR-FRET, Probe 1, 2 hours incubation): 2.4 nM
PARP1/TIPARP IC50 Ratio (TIPARP GST-(TEV); ratio of PARP1 GST IC50 to TIPARP GST-(TEV) IC50): 1140
IC50 (PARP1 GST): 2740 nM
TGIMax (NCI-H1373 tumors; Dose A): 26%
TGIMax (NCI-H1373 tumors; Dose B): 46%
TGIMax (NCI-H1373 tumors; Dose C): 73%
TGIMax (NCI-H1373 tumors; Dose D): 92%
